PubChem BioAssay AID2060486 (Molecular Pharmacology Branch, DTP, NCI, 2025)

Tested on: IGROV1 complex spheroids (HUVEC, MSC), viability % test/control
Assay: Anticancer human tumor IGROV1 cell line growth inhibition [GQUAD];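 also: spheroids exposed to compounds for 7 days before readout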
Details: for IC50: curve of first compound; for viability, T/C: stronger effect = lower value
Text: DNA G-quadruplex Stabilizer Agents in Combinations in Complex Spheroids
A high-throughput screen of multi-cell type tumor spheroids was designed to identify active combinations of DNA G-quadruplex stabilizer agents and targeted small molecules. Complex spheroids include a stromal component modeled by human endothelial cells (HUVEC) and fibroblasts modeled by human mesenchymal stem cells (MSCs). The concentration ranges selected for each drug and investigational agent were based upon clinically achievable concentrations if the clinical Cmax of the agent was known.
Compounds. The drugs and investigational agents: pidnarulex (CX-5461; NSC782164), APTO-253 (NSC789042), BRACO-19 (NSC847499), peposertib (NSC802822), ceralasertib (NSC780249), elimusertib (NSC800525), camonsertib (NSC841442), AZD-1390 (NSC803789), olaparib (NSC753686), talazoparib (NSC767125), ART-558 (NSC835418), sotorasib (NSC818433), MRTX-1133 (NSC836407), SN-38 (NSC673596), topotecan (NSC609699), etoposide (NSC141540), doxorubicin (NSC123127), gemcitabine (NSC613327), 5-fluorouracil (NSC19893), paclitaxel (NSC125973), vemurafenib (NSC761431), panobinostat (NSC761190), R-306465 (JNJ-16241199; NSC773264), adavosertib (NSC754352), TP-3654 (NSC805149), carboplatin (NSC241240), KSQ-4279 (NSC840948), and staurosporine (NSC755774) were obtained from the National Cancer Institute (NCI) Developmental Therapeutics Program Chemical Repository (34). The FDA-approved anticancer drug set is available from the NCI Developmental Therapeutics Program. […] The stock solutions were prepared in dimethyl sulfoxide (DMSO, Sigma-Aldrich, St. Louis, MO, cat. D2650) at 800-fold the tested concentration and stored at -70 degrees C prior to their use. All drugs and investigational agents were tested over a range starting from a high concentration at or near the clinical Cmax and decreasing in half-log increments. If the clinical Cmax for an agent had not been determined, the highest concentration tested was 10 microM.
2.3 Cell Culture. All cells were maintained in an incubator at 37 degrees C and 5% CO2 with 95% humidity. The PDC lines were cultured according to standard operating procedures established by the NCI PDMR. All PDCs were thawed and cultured in Matrigel-coated flasks prepared with a working solution of 1X Ham's F-12 nutrient mix, without supplementation (Invitrogen, cat. 11765054), 100 U/mL penicillin-streptomycin (Invitrogen, cat. 15140122), and 2.5% Matrigel (Corning Inc., cat. 354248) for the first three passages. The 857933-349-R-J2-PDC line was cultured in 6C/Colon 1B media, which includes advanced DMEM/F-12 (Thermo Fisher Scientific, cat. 12634028), 10 mM HEPES (Thermo Fisher Scientific, cat. 15630080), 1X GlutaMAX supplement (Thermo Fisher Scientific, cat. 35050061), 0.1 mg/mL primocin (InvivoGen, cat. ant-pm-2), 10% defined fetal bovine serum, heat inactivated (HyClone Laboratories Inc., cat. SH30070.03HI), 50% L-WRN conditioned media (ATCC, cat. CRL-3276), 1.25 mM N-Acetyl-L-cysteine (Sigma-Aldrich, cat. A9165), 10 mM nicotinamide (Sigma-Aldrich, cat. N0636), 1X B-27 supplement (Thermo Fisher Scientific, cat. 17504044), 1X N-2 supplement (Thermo Fisher Scientific, cat. 17502048), 10 microM Y-27632 dihydrochloride (Tocris Bioscience, cat. 1254), and 50 ng/mL human EGF recombinant protein (Thermo Fisher Scientific, cat. PHG0311). The 485176-168-R4-J1-PDC line was cultured in Panc media, which includes all 6C/Colon 1B media components plus 100 ng/mL human FGF-10 (Thermo Fisher Scientific, cat. 100-26), 500 nM SB-431542 (Selleckchem, cat. S1067), and gastrin (Tocris, cat. 3006).
[…]

[1] = second compound 0.0316 µM, first compound 0.0316 µM
[2] = second compound 0.0316 µM, first compound 0.316 µM
[3] = second compound 0.1 µM, first compound 0.0316 µM
[4] = second compound 0.1 µM, first compound 0.316 µM
[5] = second compound 0.316 µM, first compound 0.0316 µM
[6] = second compound 0.316 µM, first compound 0.316 µM
[7] = second compound 1 µM, first compound 0.0316 µM
[8] = second compound 1 µM, first compound 0.316 µM
[9] = second compound 3.16 µM, first compound 0.0316 µM
[10] = second compound 3.16 µM, first compound 0.316 µM
[11] = second compound 10 µM, first compound 0.0316 µM
[12] = second compound 10 µM, first compound 0.316 µM

CCc1c2c(nc3ccc(O)cc13)-c1cc3c(c(=O)n1C2)COC(=O)[C@]3(O)CC + Cc1[nH]c2ccc(F)cc2c1-c1nc2c3cccnc3c3ncccc3c2[nH]1 was tested, and the IC50 (second compound 0.0316 µM) was 1.23 nM, the IC50 (second compound 0.1 µM) was 1.22 nM and the IC50 (second compound 0.316 µM) was less than 0.999 nM. The IC50 (second compound 1 µM) was less than 0.999 nM, the IC50 (second compound 3.16 µM) was less than 0.999 nM and the IC50 (second compound 10 µM) was less than 0.999 nM. The viability, T/C (second compound 0.0316 µM, first compound 0.000999 µM) was 57.7%, the viability, T/C (second compound 0.0316 µM, first compound 0.00316 µM) was 15.4% and the viability, T/C (second compound 0.0316 µM, first compound 0.00999 µM) was 10.2%. For the same compound, the viability, T/C [1] was 6.35%, the viability, T/C (second compound 0.0316 µM, first compound 0.0999 µM) was 4.8% and the viability, T/C [2] was 1.3%. The viability, T/C (second compound 0.1 µM, first compound 0.000999 µM) was 58%, the viability, T/C (second compound 0.1 µM, first compound 0.00316 µM) was 12.6% and the viability, T/C (second compound 0.1 µM, first compound 0.00999 µM) was 10.4%. For the same compound, the viability, T/C [3] was 6.87%, the viability, T/C (second compound 0.1 µM, first compound 0.0999 µM) was 4.33% and the viability, T/C [4] was 1.74%. The viability, T/C (second compound 0.316 µM, first compound 0.000999 µM) was 36%, the viability, T/C (second compound 0.316 µM, first compound 0.00316 µM) was 18.3% and the viability, T/C (second compound 0.316 µM, first compound 0.00999 µM) was 10.3%. The viability, T/C [5] was 7.63%, the viability, T/C (second compound 0.316 µM, first compound 0.0999 µM) was 4.58% and the viability, T/C [6] was 1.81%. For the same compound, the viability, T/C (second compound 1 µM, first compound 0.000999 µM) was 4.92%, the viability, T/C (second compound 1 µM, first compound 0.00316 µM) was 3.7% and the viability, T/C (second compound 1 µM, first compound 0.00999 µM) was 3.69%. It also gave a viability, T/C [7] of 2.84%, a viability, T/C (second compound 1 µM, first compound 0.0999 µM) of 2.04% and a viability, T/C [8] of 0.8%. The viability, T/C (second compound 3.16 µM, first compound 0.000999 µM) was 4.87%, the viability, T/C (second compound 3.16 µM, first compound 0.00316 µM) was 4.58% and the viability, T/C (second compound 3.16 µM, first compound 0.00999 µM) was 3.82%. For the same compound, the viability, T/C [9] was 3.33%, the viability, T/C (second compound 3.16 µM, first compound 0.0999 µM) was 1.4% and the viability, T/C [10] was 0.62%. It also gave a viability, T/C (second compound 10 µM, first compound 0.000999 µM) of 4.11%, a viability, T/C (second compound 10 µM, first compound 0.00316 µM) of 3.78% and a viability, T/C (second compound 10 µM, first compound 0.00999 µM) of 4.08%. The viability, T/C [11] was 3.15%, the viability, T/C (second compound 10 µM, first compound 0.0999 µM) was 1.92% and the viability, T/C [12] was 0.73%.

COc1cccc2c1C(=O)c1c(O)c3c(c(O)c1C2=O)CC(O)(C(=O)CO)CC3OC1CC(N)C(O)C(C)O1 (centres undefined) + Cc1[nH]c2ccc(F)cc2c1-c1nc2c3cccnc3c3ncccc3c2[nH]1 gave an IC50 (second compound 0.0316 µM) of 58.1 nM, an IC50 (second compound 0.1 µM) of 45.9 nM and an IC50 (second compound 0.316 µM) of less than 31.6 nM. The IC50 (second compound 1 µM) was less than 31.6 nM, the IC50 (second compound 3.16 µM) was less than 31.6 nM and the IC50 (second compound 10 µM) was less than 31.6 nM. The viability, T/C [1] was 77.6%, the viability, T/C (second compound 0.0316 µM, first compound 0.1 µM) was 24.5% and the viability, T/C [2] was 9.18%. The viability, T/C (second compound 0.0316 µM, first compound 1 µM) was 3.35%, the viability, T/C (second compound 0.0316 µM, first compound 3.16 µM) was 0.15% and the viability, T/C (second compound 0.0316 µM, first compound 10 µM) was 0.53%. The viability, T/C [3] was 62.3%, the viability, T/C (second compound 0.1 µM, first compound 0.1 µM) was 23.6% and the viability, T/C [4] was 10.5%. The viability, T/C (second compound 0.1 µM, first compound 1 µM) was 4.39%, the viability, T/C (second compound 0.1 µM, first compound 3.16 µM) was 0.11% and the viability, T/C (second compound 0.1 µM, first compound 10 µM) was 0.5%. It also gave a viability, T/C [5] of 34.7%, a viability, T/C (second compound 0.316 µM, first compound 0.1 µM) of 21.4% and a viability, T/C [6] of 7.11%. For the same compound, the viability, T/C (second compound 0.316 µM, first compound 1 µM) was 4.13%, the viability, T/C (second compound 0.316 µM, first compound 3.16 µM) was 0.18% and the viability, T/C (second compound 0.316 µM, first compound 10 µM) was 0.43%. It also gave a viability, T/C [7] of 4.23%, a viability, T/C (second compound 1 µM, first compound 0.1 µM) of 5.09% and a viability, T/C [8] of 3.51%. For the same compound, the viability, T/C (second compound 1 µM, first compound 1 µM) was 1.63%, the viability, T/C (second compound 1 µM, first compound 3.16 µM) was 0.1% and the viability, T/C (second compound 1 µM, first compound 10 µM) was 0.52%. The viability, T/C [9] was 3.48%, the viability, T/C (second compound 3.16 µM, first compound 0.1 µM) was 5.09% and the viability, T/C [10] was 3.34%. It also gave a viability, T/C (second compound 3.16 µM, first compound 1 µM) of 1.41%, a viability, T/C (second compound 3.16 µM, first compound 3.16 µM) of 0.08% and a viability, T/C (second compound 3.16 µM, first compound 10 µM) of 0.36%. The viability, T/C [11] was 4.02%, the viability, T/C (second compound 10 µM, first compound 0.1 µM) was 3.99% and the viability, T/C [12] was 2.84%. For the same compound, the viability, T/C (second compound 10 µM, first compound 1 µM) was 1.32%, the viability, T/C (second compound 10 µM, first compound 3.16 µM) was 0.18% and the viability, T/C (second compound 10 µM, first compound 10 µM) was 0.42%.
